This passage reports IC50, melting point and MIC results from article PMC7059037, “Development of 1,2,4-Triazole-5-Thione Derivatives as Potential Inhibitors of Enoyl Acyl Carrier Protein Reductase (InhA) in Tuberculosis” (Iranian Journal of Pharmaceutical Research : IJPR, 2019).

Each structure is given as a SMILES string.

The target of data set [1] is Mtb InhA (enoyl acyl carrier protein reductase) (Mycobacterium tuberculosis, UniProt P9WGR1). Briefly: Mtb InhA enzyme inhibition assay (fluorescence based). It counts as biochemical. How it is done: Mtb InhA enzyme inhibition assay (Fluorescence based assay)
The compounds were dissolved in 100% dimethyl sulfoxide (DMSO). […] The 50μL enzyme reaction contained PIPES- 30 mM, pH 7.5, NaCl - 50 mM, 0.005% Brij-35, DTT - 2mM, and EDTA- 0.1mM. The enzyme reaction was started by the addition of […] of dodecyl CoA synthesized in-house and the depletion of NADH was followed by measuring the fluorescence of NADH kinetically in the reaction for 30min at excitation at 340nm and emission at 420nm using Tecan Saffire II reader. The concentration at which 50% inhibition in enzyme activity was observed was reported as the IC50.

Another data set deals with Mtb H37Rv strain. Put plainly: Mtb H37Rv assay, resazurin microtiter-based assay (REMA). It counts as cell-based, Mycobacterium tuberculosis. The settings on record: Mycobacterium tuberculosis, REMA plate method, 90% inhibition with respect to growth control. (The colour change of resazurin is a common sign of viable cells or microbes.)

Mtb InhA (enoyl acyl carrier protein reductase), sequence (P9WGR1 whole entry, looked up): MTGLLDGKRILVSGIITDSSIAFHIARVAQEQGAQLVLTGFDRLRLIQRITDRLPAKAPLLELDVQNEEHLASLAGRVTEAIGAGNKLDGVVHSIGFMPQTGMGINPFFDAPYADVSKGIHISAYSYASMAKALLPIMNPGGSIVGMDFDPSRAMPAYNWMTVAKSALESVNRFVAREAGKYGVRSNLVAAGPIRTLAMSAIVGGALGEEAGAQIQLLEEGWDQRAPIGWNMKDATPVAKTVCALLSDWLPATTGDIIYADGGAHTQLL

By IC50 is commonly meant the concentration needed to halve the response being measured. Lower therefore signals greater potency in that assay. Usually melting point stands for the temperature of the solid-liquid transition. In general, MIC refers to the least concentration at which growth counts as inhibited. Low readings indicate a more susceptible organism, high ones a less susceptible organism. As for `CCOc1ccc2nc(NC(=O)Cn3nc(-c4ccncc4)oc3=S)sc2c1` [Compound 7g, N-(6-ethoxybenzo[d]thiazol-2-yl)-2-(5-(pyridin-4-yl)-2-thioxo-1,3,4-oxadiazol-3(2H)-yl)acetamide], the melting point is 252 to 254 °C. The same compound came in with an IC50 in data set [1] greater than 100 µM. Moreover, the minimal inhibitory concentration (MIC) in the data set with Mtb H37Rv strain is greater than 100 µM.
